Experimental data taken from PubChem BioAssay AID2060485 (Molecular Pharmacology Branch, DTP, NCI, 2025).
Where “and” joins values, the source holds several entries; their conditions need not be identical. Equal values may be shown once.

System: A375 multi-cell spheroids with HUVEC/MSC, viability
Test: Anticancer human tumor A375 cell line growth inhibition [GQUAD];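 also: spheroids exposed to compounds for seven days before readout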
Conditions: for viability, T/C: stronger effect = lower value
From the text: DNA G-quadruplex Stabilizer Agents in Combinations in Complex Spheroids
A high-throughput screen of multi-cell type tumor spheroids was designed to identify active combinations of DNA G-quadruplex stabilizer agents and targeted small molecules. Complex spheroids include a stromal component modeled by human endothelial cells (HUVEC) and fibroblasts modeled by human mesenchymal stem cells (MSCs). The concentration ranges selected for each drug and investigational agent were based upon clinically achievable concentrations if the clinical Cmax of the agent was known.
Compounds. The drugs and investigational agents: pidnarulex (CX-5461; NSC782164), APTO-253 (NSC789042), BRACO-19 (NSC847499), peposertib (NSC802822), ceralasertib (NSC780249), elimusertib (NSC800525), camonsertib (NSC841442), AZD-1390 (NSC803789), olaparib (NSC753686), talazoparib (NSC767125), ART-558 (NSC835418), sotorasib (NSC818433), MRTX-1133 (NSC836407), SN-38 (NSC673596), topotecan (NSC609699), etoposide (NSC141540), doxorubicin (NSC123127), gemcitabine (NSC613327), 5-fluorouracil (NSC19893), paclitaxel (NSC125973), vemurafenib (NSC761431), panobinostat (NSC761190), R-306465 (JNJ-16241199; NSC773264), adavosertib (NSC754352), TP-3654 (NSC805149), carboplatin (NSC241240), KSQ-4279 (NSC840948), and staurosporine (NSC755774) were obtained from the National Cancer Institute (NCI) Developmental Therapeutics Program Chemical Repository (34). The FDA-approved anticancer drug set is available from the NCI Developmental Therapeutics Program. […] The stock solutions were prepared in dimethyl sulfoxide (DMSO, Sigma-Aldrich, St. Louis, MO, cat. D2650) at 800-fold the tested concentration and stored at -70 degrees C prior to their use. All drugs and investigational agents were tested over a range starting from a high concentration at or near the clinical Cmax and decreasing in half-log increments. If the clinical Cmax for an agent had not been determined, the highest concentration tested was 10 microM.
2.3 Cell Culture. All cells were maintained in an incubator at 37 degrees C and 5% CO2 with 95% humidity. The PDC lines were cultured according to standard operating procedures established by the NCI PDMR. All PDCs were thawed and cultured in Matrigel-coated flasks prepared with a working solution of 1X Ham's F-12 nutrient mix, without supplementation (Invitrogen, cat. 11765054), 100 U/mL penicillin-streptomycin (Invitrogen, cat. 15140122), and 2.5% Matrigel (Corning Inc., cat. 354248) for the first three passages. The 857933-349-R-J2-PDC line was cultured in 6C/Colon 1B media, which includes advanced DMEM/F-12 (Thermo Fisher Scientific, cat. 12634028), 10 mM HEPES (Thermo Fisher Scientific, cat. 15630080), 1X GlutaMAX supplement (Thermo Fisher Scientific, cat. 35050061), 0.1 mg/mL primocin (InvivoGen, cat. ant-pm-2), 10% defined fetal bovine serum, heat inactivated (HyClone Laboratories Inc., cat. SH30070.03HI), 50% L-WRN conditioned media (ATCC, cat. CRL-3276), 1.25 mM N-Acetyl-L-cysteine (Sigma-Aldrich, cat. A9165), 10 mM nicotinamide (Sigma-Aldrich, cat. N0636), 1X B-27 supplement (Thermo Fisher Scientific, cat. 17504044), 1X N-2 supplement (Thermo Fisher Scientific, cat. 17502048), 10 microM Y-27632 dihydrochloride (Tocris Bioscience, cat. 1254), and 50 ng/mL human EGF recombinant protein (Thermo Fisher Scientific, cat. PHG0311). The 485176-168-R4-J1-PDC line was cultured in Panc media, which includes all 6C/Colon 1B media components plus 100 ng/mL human FGF-10 (Thermo Fisher Scientific, cat. 100-26), 500 nM SB-431542 (Selleckchem, cat. S1067), and gastrin (Tocris, cat. 3006).
[…]

SMILES	viability, T/C (compound 0.0316 µM)	viability, T/C (compound 0.1 µM)	viability, T/C (compound 0.316 µM)	viability, T/C (compound 1 µM)	viability, T/C (compound 3.16 µM)	viability, T/C (compound 10 µM)	IC50 (curve of compound)	viability, T/C (compound 0.000999 µM)	viability, T/C (compound 0.00316 µM)	viability, T/C (compound 0.00999 µM)	viability, T/C (compound 0.0999 µM)	IC50 (compound alone, run of 03/26/2024) [nM]
C=CC(=O)N1CCN(c2nc(=O)n(-c3c(C)ccnc3C(C)C)c3nc(-c4c(O)cccc4F)c(F)cc23)C(C)C1 (stereo unspecified)	94.3% and 100% and 93.8%	105% and 91.8% and 94.4%	95.2% and 94.2% and 99%	101% and 90.2% and 99.8%	109% and 99.3% and 126%	101% and 119% and 111%	> 10000 nM					
CC(C)n1c(=O)n(C)c2cnc3cc(F)c(-c4ccc(OCCCN5CCCCC5)nc4)cc3c21	103% and 99.6% and 97.1%	92.8% and 105% and 111%	96.4% and 103% and 99.7%	97.4% and 108% and 98.7%	102% and 114% and 109%	94.5% and 85.4% and 97.5%	> 10000 nM					
CC1COCCN1c1cc(-c2ccnn2C)c2ccnc(-c3ccn[nH]3)c2n1 (stereo unspecified)	106% and 103% and 105%	87.6% and 77% and 93.2%	75.4% and 49.7% and 69.2%	38.9% and 25% and 31.8%	13.2% and 9.89% and 11.6%	11.8% and 10.5% and 11.2%	677 nM and 294 nM and 561 nM					
CC1COCCN1c1cc(C2(O)CC3CCC(C2)O3)c2cnn(-c3ccn[nH]3)c2n1 (stereo unspecified)	117% and 107% and 101%	73.7% and 86.2% and 65.1%	47.9% and 53.4% and 35.1%	19.1% and 20.1% and 14.9%	12.1% and 10.6% and 9.5%	8.52% and 8.96% and 7.33%	250 nM and 334 nM and 176 nM					
CC1COCCN1c1cc(C2(S(C)(=N)=O)CC2)nc(-c2ccnc3[nH]ccc23)n1 (stereo unspecified)	103% and 102%	97.6% and 102%	104% and 98.5%	109% and 103%	54.7% and 63.4%	42.4% and 36.1%	4900 nM and 5560 nM					
CC[C@@]1(O)C(=O)OCc2c1cc1n(c2=O)Cc2cc3c(CN(C)C)c(O)ccc3nc2-1	80.7% and 57% and 63%		14.6% and 9.66% and 10.5%				59.3 nM and 39.5 nM and 45.8 nM	104% and 102% and 101%	105% (2×) and 93.9%	108% and 96.2% and 102%	24.7% and 19.6% and 22%	
CCc1c2c(nc3ccc(O)cc13)-c1cc3c(c(=O)n1C2)COC(=O)[C@]3(O)CC	18% and 14.4% and 15%		0.56% and 1.25% and 0.77%				< 0.999 nM	45.1% and 41.4% and 38.3%	17.9% and 15.3% and 17.3%	15.6% and 10.1% and 12.2%	4.97% and 4.55% and 5.97%	
CN(C)c1ccc(Nc2c3ccc(NC(=O)CCN4CCCC4)cc3nc3cc(NC(=O)CCN4CCCC4)ccc23)cc1	98.8% [middle of 12 runs]	103% [middle of 12 runs]	104% [middle of 12 runs]	101% [middle of 12 runs]	106% [middle of 12 runs]	102% [middle of 12 runs]						> 10000
